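Interpolation was linear, between the two tested concentrations surrounding the appropriate level; five concentrations were tested over 48 hours in 96-well plates. Abbreviation: GI50, concentration required for 50% inhibition of growth.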 Active and inactive are the calls of the source. Rule as the data show it: active = GI50 up to about 1.1 µM and inactive = higher.

Some test systems named below: A498; A549; ACHN; DU-145; HCC 2998; HCT-116; HCT-15; HOP-92; IGROV-1; MOLT-4; OVCAR-3; RPMI-8226; SF-295; SK-MEL-5; SR; SW-620; U-251; UO-31; PC-3; SK-MEL-2.
What all share (assay): growth of human tumour cells (NCI), 48 h

Turning to `O=C(CC(C(=O)c1ccoc1)c1ccco1)c1ccco1` (stereo not drawn), the GI50 in the experiment on A498 is > 100 µM (inactive); with A549 it was 79.6 µM (inactive); with ACHN, > 100 µM (inactive); in the experiment on DU-145 it was > 100 µM (inactive); in the experiment with HCC 2998, > 100 µM (inactive); in the experiment on HCT-116, > 100 µM (inactive). The GI50 is above 100 µM with HCT-15; > 100 µM (inactive) in the experiment on HOP-92; > 100 µM (inactive) in the experiment on IGROV-1; > 100 µM (inactive) with MOLT-4; > 100 µM (inactive) in the experiment on OVCAR-3; > 100 µM (inactive) with RPMI-8226. Also, the GI50 in the experiment with SF-295 is > 100 µM (inactive); in the experiment with SK-MEL-5, > 100 µM (inactive); with SR, 85.7 µM (inactive); in the experiment with SW-620, > 100 µM (inactive); in the experiment on U-251, > 100 µM (inactive); with UO-31 it was 65.9 µM (inactive).

`O=C1N/N=C\Nc2ccc(cc2)S(=O)(=O)c2ccc(cc2)/N=C\NNC1=O`: the GI50 in the experiment on A498 is 20 µM (inactive); with A549, > 100 µM (inactive); with ACHN, > 100 µM (inactive); with DU-145, > 100 µM (inactive); with HCC 2998, > 100 µM (inactive); in the experiment with HCT-116 it was > 100 µM (inactive). Further, the GI50 with HCT-15 is above 100 µM; in the experiment on HOP-92, > 100 µM (inactive); in the experiment with IGROV-1, > 100 µM (inactive); with MOLT-4, > 100 µM (inactive); in the experiment with OVCAR-3, > 100 µM (inactive); with PC-3, > 100 µM (inactive). Besides, the GI50 in the experiment with SF-295, in the experiment on SK-MEL-2, in the experiment with SK-MEL-5, in the experiment with SW-620, with U-251 and in the experiment on UO-31 was > 100 µM (inactive) throughout.

In the case of `C/C(=C\Cc1cc(O)ccc1O)CCc1c(C)c(O)c(O)c(C=O)c1C` [PANICEIN C], the GI50 is 49.2 µM (inactive) in the experiment with A498; 30.4 µM (inactive) in the experiment on A549; 20.3 µM (inactive) in the experiment with ACHN; 47.9 µM (inactive) in the experiment with HCC 2998; 19.1 µM (inactive) in the experiment on HCT-116; 31.4 µM in the experiment with HCT-15. Further, the GI50 in the experiment with HOP-92 is 15.7 µM (inactive); with IGROV-1, 17.1 µM (inactive); in the experiment with MOLT-4, 17.1 µM (inactive); in the experiment on OVCAR-3, 21.2 µM (inactive); in the experiment on RPMI-8226, 17.4 µM (inactive); with SF-295, 25.4 µM (inactive). Further, the GI50 in the experiment on SK-MEL-2 was 23.2 µM (inactive); in the experiment on SK-MEL-5 it was 15.5 µM (inactive); with SR it was 7.38 µM (inactive); in the experiment with SW-620 it was 35.6 µM (inactive); in the experiment on U-251, 18.6 µM (inactive); with UO-31, 28.2 µM (inactive).

Regarding `COc1ccc(C2CC(c3cc4c(C)c(C(=O)c5ccccc5)oc4cc3O)=Nc3ccccc3S2)cc1OC` (stereo not drawn), the GI50 in the experiment on A498 was > 57.5 µM (inactive); in the experiment with A549, 96.8 µM (inactive); in the experiment with ACHN it was > 65.8 µM (inactive); in the experiment on HCC 2998, > 100 µM (inactive); in the experiment on HCT-116, > 90.4 µM (inactive); in the experiment on HCT-15 it was above 73.1 µM. Moreover, the GI50 with HOP-92 was 20.3 µM (inactive); in the experiment on IGROV-1, 55.8 µM (inactive); in the experiment with MOLT-4 it was > 100 µM (inactive); with PC-3 it was > 100 µM (inactive); in the experiment with RPMI-8226, > 91.6 µM (inactive); in the experiment with SK-MEL-2, > 59.2 µM (inactive). Moreover, the GI50 in the experiment with SK-MEL-5 was > 56.5 µM (inactive); in the experiment with SR, 52.5 µM (inactive); with SW-620 it was > 84.7 µM (inactive); in the experiment on U-251 it was > 65 µM (inactive); in the experiment on UO-31 it was > 100 µM (inactive).

Turning to `Cc1c2nc3ccccc3sc-2cc(=O)c1C`, the GI50 in the experiment on A498 was > 100 µM (inactive); with A549, 48.8 µM (inactive); in the experiment with ACHN, 48.9 µM (inactive); with HCC 2998, > 100 µM (inactive); in the experiment with HCT-116 it was 12.7 µM (inactive); in the experiment on HCT-15 it was 12.9 µM. In addition, the GI50 in the experiment on HOP-92 is > 65.9 µM (inactive); in the experiment on IGROV-1 it was > 56.2 µM (inactive); in the experiment on MOLT-4, 34.5 µM (inactive); in the experiment on OVCAR-3 it was 35.3 µM (inactive); in the experiment on RPMI-8226, 39.8 µM (inactive); in the experiment on SF-295 it was 61.2 µM (inactive). The GI50 with SK-MEL-2 is 14.4 µM (inactive); in the experiment on SK-MEL-5 it was 34.8 µM (inactive); in the experiment with SR, > 10 µM (inactive); in the experiment with SW-620 it was > 90.2 µM (inactive); in the experiment on U-251, 47.5 µM (inactive); in the experiment with UO-31, 36 µM (inactive).

In the case of `COc1cccc(-c2cc(O)c3cc4c(cc3n2)OCO4)c1`, the GI50 with A498 was 0.069 µM (active); in the experiment on A549, 0.313 µM (active); in the experiment with ACHN it was 0.183 µM (active); in the experiment with HCC 2998, 0.182 µM (active); in the experiment on HCT-116, 0.0902 µM (active); in the experiment with HCT-15, 0.118 µM. The GI50 in the experiment with HOP-92 was 18 µM (inactive); in the experiment on IGROV-1, 0.366 µM (active); in the experiment with MOLT-4, 0.139 µM (active); in the experiment on OVCAR-3 it was 0.038 µM (active); with RPMI-8226, 0.492 µM (active); with SF-295, 0.0818 µM (active). For the same molecule, the GI50 was 0.057 µM (active) with SK-MEL-2; 0.0352 µM (active) in the experiment on SK-MEL-5; 0.169 µM (active) in the experiment on SR; 0.034 µM (active) in the experiment with SW-620; 0.121 µM (active) in the experiment with U-251; 0.182 µM (active) in the experiment on UO-31.

For the molecule `COC(=O)[C@@H]1[C@@H](c2cccc(Cl)c2)[C@H](C(=O)OC)C2(C[C@@]1(C)O)NCCS2` (stereo partly drawn), the GI50 is > 100 µM (inactive) in the experiment on A498; 55 µM (inactive) in the experiment with A549; > 100 µM (inactive) in the experiment with ACHN; 32.7 µM (inactive) with DU-145; 42.5 µM (inactive) in the experiment with HCT-116; 82.6 µM in the experiment with HCT-15. Moreover, the GI50 in the experiment on HOP-92 is 73.6 µM (inactive); in the experiment on IGROV-1, 62.5 µM (inactive); in the experiment with MOLT-4, 0.57 µM (active); with OVCAR-3 it was 31.3 µM (inactive); with PC-3, 31.4 µM (inactive); in the experiment on SF-295, > 100 µM (inactive). The GI50 with SK-MEL-2 was 16.6 µM (inactive); in the experiment on SK-MEL-5 it was 44.9 µM (inactive); in the experiment on SW-620 it was 36.6 µM (inactive); with U-251, > 100 µM (inactive); with UO-31 it was > 100 µM (inactive).

Consider `CCc1n[nH]c(=O)n1/N=C/c1ccccc1Cl`, for which the GI50 with A498, in the experiment with A549, with ACHN, in the experiment on DU-145, in the experiment on HCC 2998 and in the experiment with HCT-116 was > 100 µM (inactive) each time. The GI50 with HCT-15 was above 100 µM; in the experiment with HOP-92, 74.8 µM (inactive); with IGROV-1, 78.3 µM (inactive); in the experiment on MOLT-4 it was > 100 µM (inactive); in the experiment with OVCAR-3 it was > 100 µM (inactive); in the experiment on RPMI-8226, > 100 µM (inactive). In addition, the GI50 was > 100 µM (inactive) in the experiment on SF-295; > 100 µM (inactive) with SK-MEL-2; > 100 µM (inactive) in the experiment on SK-MEL-5; > 100 µM (inactive) in the experiment with SR; > 100 µM (inactive) with SW-620; 65.8 µM (inactive) in the experiment on U-251. Moreover, in the experiment on UO-31, the GI50 was > 100 µM (inactive).

These data come from ChEMBL document CHEMBL1201862, “PubChem BioAssay data set” (2004).
